Test results published in ChEMBL document CHEMBL2057100, “The optimization of pyridazinone series of glucan synthase inhibitors” (Bioorg Med Chem Lett, 2012).
pIC50: −log10 of the molar value. Values after ≈ are worked out from the molar mass of the structure shown.

Target: T1, Beta-1,3-glucan synthase (Candida albicans, UniProt O13383)
T1 sequence (O13383 whole entry): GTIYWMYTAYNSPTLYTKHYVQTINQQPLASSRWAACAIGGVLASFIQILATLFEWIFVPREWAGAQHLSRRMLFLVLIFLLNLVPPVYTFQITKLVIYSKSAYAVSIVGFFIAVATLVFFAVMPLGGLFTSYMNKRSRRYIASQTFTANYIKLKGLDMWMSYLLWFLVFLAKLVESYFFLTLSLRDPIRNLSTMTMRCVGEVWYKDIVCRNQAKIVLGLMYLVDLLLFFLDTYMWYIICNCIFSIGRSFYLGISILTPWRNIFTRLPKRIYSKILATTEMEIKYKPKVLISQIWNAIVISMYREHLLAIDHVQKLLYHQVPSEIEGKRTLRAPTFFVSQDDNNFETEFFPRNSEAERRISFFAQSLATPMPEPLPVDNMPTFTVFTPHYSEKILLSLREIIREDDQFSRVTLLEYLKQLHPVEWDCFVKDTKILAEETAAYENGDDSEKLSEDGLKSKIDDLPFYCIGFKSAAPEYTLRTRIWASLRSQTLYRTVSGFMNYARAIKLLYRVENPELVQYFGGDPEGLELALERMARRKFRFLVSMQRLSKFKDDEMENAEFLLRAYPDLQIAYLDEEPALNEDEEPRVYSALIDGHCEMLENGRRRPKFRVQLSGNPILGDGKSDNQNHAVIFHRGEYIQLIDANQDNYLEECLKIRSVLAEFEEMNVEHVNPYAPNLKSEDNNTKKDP
Experiment: Inhibition of 1,3-beta-D-glucan synthase in Candida albicans BWP17 membranes
Type: cell membranes
Conditions: not given

Row | SMILES | pIC50
1 | COc1cc(CS(=O)(=O)N2CCN(c3cnn(-c4cccc(Cl)c4)c(=O)c3OCC3(C)CC3)CC2)ccc1N | 6.98
2 | O=c1c(OCC2(CF)CC2)c(N2CCN(S(=O)(=O)Cc3ccccc3)CC2)cnn1-c1cccc(Cl)c1 | 7.26
3 | O=c1c(OC2CCc3cccnc32)c(N2CCN(S(=O)(=O)Cc3ccccc3)CC2)cnn1-c1cccc(Cl)c1 (configuration not stated) | 5.86
4 | CC1(COc2c(N3CCN(S(=O)(=O)Cc4cccc(N)c4)CC3)cnn(-c3cccc(Cl)c3)c2=O)CC1 | 7.13
5 | O=c1c(OC2CCCC2)c(N2CCN(S(=O)(=O)Cc3ccccc3)CC2)cnn1-c1cccc(Cl)c1 | 6.42
6 | Nc1cccc(CS(=O)(=O)N2CCN(c3cnn(-c4cc(F)cc(F)c4)c(=O)c3OC3CCCC3)CC2)c1 | 6.89
7 | O=c1c(OC2CCC(O)C2)c(N2CCN(S(=O)(=O)Cc3ccccc3)CC2)cnn1-c1cccc(Cl)c1 (configuration not stated) | 5.78
8 | O=c1c(OC2CCCC2)c(N2CCN(S(=O)(=O)Cc3ccccc3F)CC2)cnn1-c1cccc(Cl)c1 | 7.14
9 | O=c1c(OC2CCCC2)c(N2CCN(S(=O)(=O)Cc3cccc(F)c3)CC2)cnn1-c1cc(F)cc(F)c1 | 7.14
10 | CC1(COc2c(N3CCN(S(=O)(=O)Cc4ccnc(N)c4)CC3)cnn(-c3cccc(Cl)c3)c2=O)CC1 | 6.56
11 | CC(C)(O)CCOc1c(N2CCN(S(=O)(=O)Cc3ccccc3)CC2)cnn(-c2cc(F)cc(F)c2)c1=O | 6.25
12 | O=c1c(OCCc2ccccn2)c(N2CCN(S(=O)(=O)Cc3ccccc3)CC2)cnn1-c1cccc(Cl)c1 | 5.97
13 | O=c1c(OC2CCCC2)c(N2CCN(S(=O)(=O)Cc3cccc(Cl)c3)CC2)cnn1-c1cccc(Cl)c1 | 6.80
14 | O=c1c(OC2CCCC2)c(N2CCN(S(=O)(=O)Cc3cc(Cl)cc(Cl)c3)CC2)cnn1-c1cccc(Cl)c1 | 6.45
15 | CC1(COc2c(N3CCN(S(=O)(=O)Cc4ccccc4)CC3)cnn(-c3cccc(Cl)c3)c2=O)CC1 | 7.25
16 | O=c1c(OC2CCOCC2)c(N2CCN(S(=O)(=O)Cc3ccccc3)CC2)cnn1-c1cccc(Cl)c1 | 6.04
17 | O=c1c(OC2CCCCC2)c(N2CCN(S(=O)(=O)Cc3ccccc3)CC2)cnn1-c1cccc(Cl)c1 | 5.83
18 | O=c1c(OC2CCCc3ncccc32)c(N2CCN(S(=O)(=O)Cc3ccccc3)CC2)cnn1-c1cccc(Cl)c1 (configuration not stated) | 5.17

Test system: Nakaseomyces glabratus
Experiment: Antifungal activity against Candida glabrata C624 by broth dilution method
Type: functional
Conditions: read-out: MIC100

Row | SMILES | MIC
19 | COc1cc(CS(=O)(=O)N2CCN(c3cnn(-c4cccc(Cl)c4)c(=O)c3OCC3(C)CC3)CC2)ccc1N | 0.06 µg/mL (≈ 0.105 µM)
20 | O=c1c(OCC2(CF)CC2)c(N2CCN(S(=O)(=O)Cc3ccccc3)CC2)cnn1-c1cccc(Cl)c1 | < 0.02 µg/mL
21 | O=c1c(OC2CCc3cccnc32)c(N2CCN(S(=O)(=O)Cc3ccccc3)CC2)cnn1-c1cccc(Cl)c1 (configuration not stated) | 0.78 µg/mL (≈ 1.35 µM)
22 | CC1(COc2c(N3CCN(S(=O)(=O)Cc4cccc(N)c4)CC3)cnn(-c3cccc(Cl)c3)c2=O)CC1 | 0.13 µg/mL (≈ 0.239 µM)
23 | O=c1c(OC2CCCC2)c(N2CCN(S(=O)(=O)Cc3ccccc3)CC2)cnn1-c1cccc(Cl)c1 | < 0.02 µg/mL
24 | Nc1cccc(CS(=O)(=O)N2CCN(c3cnn(-c4cc(F)cc(F)c4)c(=O)c3OC3CCCC3)CC2)c1 | 0.13 µg/mL (≈ 0.238 µM)
25 | O=c1c(OC2CCC(O)C2)c(N2CCN(S(=O)(=O)Cc3ccccc3)CC2)cnn1-c1cccc(Cl)c1 (configuration not stated) | 0.78 µg/mL (≈ 1.43 µM)
26 | O=c1c(OC2CCCC2)c(N2CCN(S(=O)(=O)Cc3ccccc3F)CC2)cnn1-c1cccc(Cl)c1 | 0.2 µg/mL (≈ 0.366 µM)
27 | O=c1c(OC2CCCC2)c(N2CCN(S(=O)(=O)Cc3cccc(F)c3)CC2)cnn1-c1cc(F)cc(F)c1 | < 0.02 µg/mL
28 | CC1(COc2c(N3CCN(S(=O)(=O)Cc4ccnc(N)c4)CC3)cnn(-c3cccc(Cl)c3)c2=O)CC1 | 1.04 µg/mL (≈ 1.91 µM)
29 | CC(C)(O)CCOc1c(N2CCN(S(=O)(=O)Cc3ccccc3)CC2)cnn(-c2cc(F)cc(F)c2)c1=O | 0.78 µg/mL (≈ 1.42 µM)
30 | O=c1c(OCCc2ccccn2)c(N2CCN(S(=O)(=O)Cc3ccccc3)CC2)cnn1-c1cccc(Cl)c1 | 0.39 µg/mL (≈ 0.689 µM)
31 | O=c1c(OC2CCCC2)c(N2CCN(S(=O)(=O)Cc3cccc(Cl)c3)CC2)cnn1-c1cccc(Cl)c1 | 0.05 µg/mL (≈ 0.0887 µM)
32 | O=c1c(OC2CCCC2)c(N2CCN(S(=O)(=O)Cc3cc(Cl)cc(Cl)c3)CC2)cnn1-c1cccc(Cl)c1 | 0.39 µg/mL (≈ 0.652 µM)
33 | CC1(COc2c(N3CCN(S(=O)(=O)Cc4ccccc4)CC3)cnn(-c3cccc(Cl)c3)c2=O)CC1 | < 0.02 µg/mL
34 | O=c1c(OC2CCOCC2)c(N2CCN(S(=O)(=O)Cc3ccccc3)CC2)cnn1-c1cccc(Cl)c1 | 0.02 µg/mL (≈ 0.0367 µM)
35 | O=c1c(OC2CCCCC2)c(N2CCN(S(=O)(=O)Cc3ccccc3)CC2)cnn1-c1cccc(Cl)c1 | < 0.02 µg/mL
36 | O=c1c(OC2CCCc3ncccc32)c(N2CCN(S(=O)(=O)Cc3ccccc3)CC2)cnn1-c1cccc(Cl)c1 (configuration not stated) | 1.6 µg/mL (≈ 2.7 µM)

Test system: Candida albicans
Experiment: Antifungal activity against Candida albicans C693 by broth dilution method
Type: functional
Conditions: read-out: MIC100

Row | SMILES | MIC
37 | COc1cc(CS(=O)(=O)N2CCN(c3cnn(-c4cccc(Cl)c4)c(=O)c3OCC3(C)CC3)CC2)ccc1N | 0.52 µg/mL (≈ 0.906 µM)
38 | O=c1c(OCC2(CF)CC2)c(N2CCN(S(=O)(=O)Cc3ccccc3)CC2)cnn1-c1cccc(Cl)c1 | 0.2 µg/mL (≈ 0.366 µM)
39 | O=c1c(OC2CCc3cccnc32)c(N2CCN(S(=O)(=O)Cc3ccccc3)CC2)cnn1-c1cccc(Cl)c1 (configuration not stated) | 12.5 µg/mL (≈ 21.6 µM)
40 | CC1(COc2c(N3CCN(S(=O)(=O)Cc4cccc(N)c4)CC3)cnn(-c3cccc(Cl)c3)c2=O)CC1 | 0.52 µg/mL (≈ 0.956 µM)
41 | O=c1c(OC2CCCC2)c(N2CCN(S(=O)(=O)Cc3ccccc3)CC2)cnn1-c1cccc(Cl)c1 | 0.39 µg/mL (≈ 0.737 µM)
42 | Nc1cccc(CS(=O)(=O)N2CCN(c3cnn(-c4cc(F)cc(F)c4)c(=O)c3OC3CCCC3)CC2)c1 | 0.52 µg/mL (≈ 0.953 µM)
43 | O=c1c(OC2CCC(O)C2)c(N2CCN(S(=O)(=O)Cc3ccccc3)CC2)cnn1-c1cccc(Cl)c1 (configuration not stated) | 25 µg/mL (≈ 45.9 µM)
44 | O=c1c(OC2CCCC2)c(N2CCN(S(=O)(=O)Cc3ccccc3F)CC2)cnn1-c1cccc(Cl)c1 | 0.39 µg/mL (≈ 0.713 µM)
45 | O=c1c(OC2CCCC2)c(N2CCN(S(=O)(=O)Cc3cccc(F)c3)CC2)cnn1-c1cc(F)cc(F)c1 | 0.1 µg/mL (≈ 0.182 µM)
46 | CC1(COc2c(N3CCN(S(=O)(=O)Cc4ccnc(N)c4)CC3)cnn(-c3cccc(Cl)c3)c2=O)CC1 | 16.7 µg/mL (≈ 30.6 µM)
47 | CC(C)(O)CCOc1c(N2CCN(S(=O)(=O)Cc3ccccc3)CC2)cnn(-c2cc(F)cc(F)c2)c1=O | 25 µg/mL (≈ 45.6 µM)
48 | O=c1c(OCCc2ccccn2)c(N2CCN(S(=O)(=O)Cc3ccccc3)CC2)cnn1-c1cccc(Cl)c1 | 6.25 µg/mL (≈ 11 µM)
49 | O=c1c(OC2CCCC2)c(N2CCN(S(=O)(=O)Cc3cccc(Cl)c3)CC2)cnn1-c1cccc(Cl)c1 | 1.56 µg/mL (≈ 2.77 µM)
50 | O=c1c(OC2CCCC2)c(N2CCN(S(=O)(=O)Cc3cc(Cl)cc(Cl)c3)CC2)cnn1-c1cccc(Cl)c1 | > 50 µg/mL
51 | CC1(COc2c(N3CCN(S(=O)(=O)Cc4ccccc4)CC3)cnn(-c3cccc(Cl)c3)c2=O)CC1 | 0.1 µg/mL (≈ 0.189 µM)
52 | O=c1c(OC2CCOCC2)c(N2CCN(S(=O)(=O)Cc3ccccc3)CC2)cnn1-c1cccc(Cl)c1 | 3.13 µg/mL (≈ 5.74 µM)
53 | O=c1c(OC2CCCCC2)c(N2CCN(S(=O)(=O)Cc3ccccc3)CC2)cnn1-c1cccc(Cl)c1 | 0.78 µg/mL (≈ 1.44 µM)
54 | O=c1c(OC2CCCc3ncccc32)c(N2CCN(S(=O)(=O)Cc3ccccc3)CC2)cnn1-c1cccc(Cl)c1 (configuration not stated) | > 50 µg/mL

Test system: not listed separately
Experiment: AUC (0 to 6 hrs) in rat at 10 mg/kg, po
Type: ADME, organism-based, Plasma
Design: time < 6 hr, dose 10 mg/kg, route oral
Conditions: plasma

Row | SMILES | AUC(0-t) at 6 h
55 | COc1cc(CS(=O)(=O)N2CCN(c3cnn(-c4cccc(Cl)c4)c(=O)c3OCC3(C)CC3)CC2)ccc1N | 13100 ng·h/mL
56 | CC1(COc2c(N3CCN(S(=O)(=O)Cc4cccc(N)c4)CC3)cnn(-c3cccc(Cl)c3)c2=O)CC1 | 5700 ng·h/mL
57 | Nc1cccc(CS(=O)(=O)N2CCN(c3cnn(-c4cc(F)cc(F)c4)c(=O)c3OC3CCCC3)CC2)c1 | 5700 ng·h/mL

Test system: Aspergillus fumigatus
Experiment: Antifungal activity against Aspergillus fumigatus ND158 by broth dilution method
Type: functional
Conditions: read-out: MEC

Row | SMILES | minimal effective concentration
58 | COc1cc(CS(=O)(=O)N2CCN(c3cnn(-c4cccc(Cl)c4)c(=O)c3OCC3(C)CC3)CC2)ccc1N | 2.08 µg/mL
59 | CC1(COc2c(N3CCN(S(=O)(=O)Cc4cccc(N)c4)CC3)cnn(-c3cccc(Cl)c3)c2=O)CC1 | 1.04 µg/mL
60 | CC1(COc2c(N3CCN(S(=O)(=O)Cc4ccnc(N)c4)CC3)cnn(-c3cccc(Cl)c3)c2=O)CC1 | 8.4 µg/mL

Test system: not listed separately
Experiment: Cmax in rat at 10 mg/kg, po
Type: ADME, organism-based
Design: dose 10 mg/kg, route oral
Conditions: in vivo

Row | SMILES | Cmax
61 | COc1cc(CS(=O)(=O)N2CCN(c3cnn(-c4cccc(Cl)c4)c(=O)c3OCC3(C)CC3)CC2)ccc1N | 3300 ng/mL
62 | CC1(COc2c(N3CCN(S(=O)(=O)Cc4cccc(N)c4)CC3)cnn(-c3cccc(Cl)c3)c2=O)CC1 | 1400 ng/mL
